In article PMC11066976 (Cell reports, 2023):
Like-named read-outs stand apart in the source and are kept apart here. Values belong to the molecule of their own block, whether it stands above or below them.

Assays:
Experiment in all cases: compensated interferometric reader
transcobalamin 2 (TCN2) [1] = molecular target: T1, transcobalamin 2 (TCN2) (Homo sapiens, UniProt P20062); type: binding
T1 sequence (P20062 19-427): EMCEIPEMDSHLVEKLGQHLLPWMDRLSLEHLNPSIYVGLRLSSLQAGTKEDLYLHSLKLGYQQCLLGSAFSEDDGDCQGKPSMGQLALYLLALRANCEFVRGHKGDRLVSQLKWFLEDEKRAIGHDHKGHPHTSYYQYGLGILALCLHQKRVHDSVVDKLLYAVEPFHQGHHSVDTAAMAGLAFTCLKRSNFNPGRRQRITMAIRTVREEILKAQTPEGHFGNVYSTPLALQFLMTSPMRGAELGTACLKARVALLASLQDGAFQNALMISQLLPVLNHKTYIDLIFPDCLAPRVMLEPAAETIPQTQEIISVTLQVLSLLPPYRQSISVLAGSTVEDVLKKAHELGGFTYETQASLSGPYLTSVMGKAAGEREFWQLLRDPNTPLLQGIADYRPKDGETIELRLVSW

CD320 = molecular target: T2, CD320 (Homo sapiens, UniProt Q9NPF0); type: binding
T2 sequence (Q9NPF0 36-229 limits assumed): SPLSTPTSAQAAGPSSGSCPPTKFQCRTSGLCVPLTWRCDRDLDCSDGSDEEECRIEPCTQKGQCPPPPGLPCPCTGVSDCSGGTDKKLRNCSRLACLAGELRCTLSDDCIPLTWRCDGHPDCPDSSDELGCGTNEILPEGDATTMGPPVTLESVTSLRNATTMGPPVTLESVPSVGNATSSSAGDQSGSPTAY

transcobalamin 2 (TCN2) [2] = molecular target: T1, transcobalamin 2 (TCN2); type: binding; remark: listed apart in the source
Recombinant human TCN2 = molecular target: T3, Recombinant human TCN2 (human, UniProt P20062 19-427)
T3 sequence (looked up): T1 sequence (P20062 19-427)

Molecule: CCCCCCCCc1ccc(CCC(N)(CO)CO)cc1 [FTY720]
Kd (transcobalamin 2 (TCN2) [1]): 0.24 nM

Molecule: CCCCCCCCCCCCC/C=C/[C@@H](O)[C@@H](N)COP(=O)(O)O [S1P]
Kd (CD320): 11.8 nM

B1: Recombinant human CD320 (receptor, UniProt Q9NPF0 36-229, looked up)
chain: T2 sequence (Q9NPF0 36-229 limits assumed)
Kd (Recombinant human TCN2): 1.86 nM

Next, values leading:

Kd (transcobalamin 2 (TCN2) [2]): 0.14 nM
Molecule: CCCCCCCCCCCCC/C=C/[C@@H](O)[C@@H](N)CO [sphingosine]

Kd (transcobalamin 2 (TCN2) [2]): 0.19 nM
Molecule: Vitamin B12
